Where a SMILES comes first, the peptide text is derived from it. [ ]: non-standard residue; d: D form. dPhe(F5) = N[C@H](Cc1c(F)c(F)c(F)c(F)c1F)C(=O)O

This is an account of results in patent US5439884A, “Method of controlling fertilization using bombesin or its agonist” (Oregon Regional Primate Research Center, priority 1992, dated 1995).

In one test the test system is human sperm. The experiment in a line: acrosome reaction in human sperm. The test is classed as cell-based. The following applies: for stimulation of the spontaneous acrosome reaction: humans. How it is done:
(§1) The acrosome reaction, which is necessary for sperm to fertilize the egg, was induced by the following methods.
(§2) To measure the effects of bombesin on the acrosome reaction, capacitation was conducted in the presence or absence of bombesin. After incubation, samples of sperm were removed to determine the percentage of sperm which had undergone the acrosome reaction as measured with an acrosome specific monoclonal antibody and FITC fluorescence [see Wolf, D. P. Am. J. Reprod. Immunol. 20:106-113 (1989), which is hereby incorporated by reference].

The test system of another test is monkey sperm. The experiment in a line: acrosome reaction in monkey sperm (acrosome specific monoclonal antibody, FITC fluorescence). In kind it is cell-based, monkeys (rhesus). The following applies: for stimulation of the spontaneous acrosome reaction: monkeys (rhesus). How it is done:
as §1
(§3) For monkeys, sperm was collected, washed twice in balanced salts, resuspended in lactate/bicarbonate and dibutyryl cAMP, and then incubated for 60 minutes. […] See Wolf, D. P. et al. Mol. Reprod. Dev. 27:261-280 (1990); Lanzendorf, S. E. et al. Mol. Reprod. Dev. 25:61-66 (1990); and Wolf D. P. et al. Biol. Reprod. 41:335-346 (1989). All of these three publications are hereby incorporated by reference.
as §2

Test [1] has as its system sperm. The experiment in a line: acrosome reaction, analogs alone or in the presence of GRP (sperm species not stated). The test is classed as cell-based. The settings on record: for % Acrosome Reacted, Analog + GRP: analog 50 nM + GRP 2 nM; for % Acrosome Reacted, Analog: analog alone, final concentration 50 nM, blank control 6.000 ± .707. The procedure:
as §1, §3, §2
Eight bombesin analogs, BIM 26136, BIM 26187, BIM 26189, BIM 26224, BIM 26226, BIM 26244, and BIM 26028, were used to test their effect on the acrosome reaction, either alone or in the presence GRP, in a manner described above.

Another test relates to new GRP receptor. The experiment in a line: response of new GRP receptor in transfected cells and Xenopus oocytes. The test is classed as cell-based, rat. From the text: A new GRP receptor, which is expressed in very high levels in rat sperm, has recently been cloned. cDNA encoding this receptor was used to determine if this new GRP receptor is expressed in primate sperm.

Test [2] relates to sperm. The following applies: high doses, 1 μg/ml; cited from earlier work.

For the compound “H-Ala-Pro-Val-Ser-Val-Gly-Gly-Gly-Thr-Val-Leu-Ala-Lys-Met-Tyr-Pro-Arg-Gly-Asn-His-Trp-Ala-Val-Gly-His-Leu-Met-NH2 (H-APVSVGGGTVLAKMYPRGNHWAVGHLM-NH2) [GRP]”, the “stimulation of the spontaneous acrosome reaction” value in the test on human sperm and with monkey sperm was “stimulate” throughout. Besides, the “concentration at which active in stimulating the acrosome reaction” value with sperm [1] is listed as 1 nM. The “% Acrosome Reacted, GRP without analog (blank control line, GRP column)” value with sperm [1] (GRP final concentration 2 nM, no analog) is recorded as 18.000 ± 3.629%. Further, the “reaction of the new receptor to the peptide” value in the test on new GRP receptor is “reacted only weakly”.
With “H-D-Phe-Gln-Trp-Ala-Val-Gly-His-Leu-Cpa-NH2 [BIM 26169]”, in the test with sperm [1], the “% Acrosome Reacted, Analog + GRP” value was 6.000 ± .408% and the “% Acrosome Reacted, Analog” value was 10.000 ± .913%.
Regarding `CC(C)C[C@H](NC(=O)[C@H](CC(C)C)NC(=O)[C@H](Cc1c[nH]cn1)NC(=O)CNC(=O)[C@@H](NC(=O)[C@H](C)NC(=O)[C@H](Cc1c[nH]c2ccccc12)NC(=O)[C@H](CCC(N)=O)NC(=O)[C@H](N)Cc1ccccc1)C(C)C)C(N)=O` [BIM 26137, H-D-Phe-Gln-Trp-Ala-Val-Gly-His-Leu-Leu-NH2], in the test on sperm [1], the “% Acrosome Reacted, Analog + GRP” value is given as 7.000 ± .707% and the “% Acrosome Reacted, Analog” value was 7.000 ± .707%.
As to “H-D-Nal-Gln-Trp-Ala-Val-Gly-His-Leu-.psi.(CH2 -NH)-Phe-NH2 [BIM 26136]”, in the test with sperm [1] (Table 1, 50 nM), the “rank in inducing the acrosome reaction among the analogs tested” value was “most potent”. Further, in the test on sperm [1], the “% Acrosome Reacted, Analog + GRP” value was found to be 10.000 ± 1.225% and the “% Acrosome Reacted, Analog” value is on record as 11.000 ± .408%.
As for `CC(=O)[C@H]1CC[C@H]2[C@@H]3CCC4=CC(=O)CC[C@]4(C)[C@H]3CC[C@]12C` [progesterone], the “induction of the acrosome reaction” value in the test on sperm [2] is “induce the acrosome reaction”.
On to `CCCC[C@H](NC(=O)[C@H](Cc1ccccc1)NC(=O)[C@H](Cc1c[nH]cn1)NC(=O)CNC(=O)[C@@H](NC(=O)[C@H](C)NC(=O)[C@H](Cc1c[nH]c2ccccc12)NC(=O)[C@H](CCC(N)=O)NC(=O)[C@H](N)Cc1ccccc1)C(C)C)C(N)=O` [BIM 26224, H-D-Phe-Gln-Trp-Ala-Val-Gly-His-Phe-Nle-NH2], for which, in the test with sperm [1], the “% Acrosome Reacted, Analog + GRP” value was found to be 6.000 ± 1.000% and the “% Acrosome Reacted, Analog” value is on record as 9.000 ± 1.581%.
For the compound `CSCC[C@H](NC(=O)[C@H](CC(C)C)NC(=O)[C@H](Cc1cnc[nH]1)NC(=O)CNC(=O)[C@@H](NC(=O)[C@H](C)NC(=O)[C@H](Cc1c[nH]c2ccccc12)NC(=O)[C@H](CCC(N)=O)NC(=O)[C@H](CC(N)=O)NC(=O)CNC(=O)[C@H](CC(C)C)NC(=O)[C@H](CCCN=C(N)N)NC(=O)[C@H](CCC(N)=O)NC(=O)[C@@H]1CCC(=O)N1)C(C)C)C(N)=O` [bombesin, H-pGlu-Gln-Arg-Leu-Gly-Asn-Gln-Trp-Ala-Val-Gly-His-Leu-Met-NH2], the “increase in the acrosome reaction” value is 2 fold in the test with human sperm (human sperm, concentrations as low as 5 nM bombesin, FIG. 2) and 2 fold in the test on monkey sperm (monkey sperm, concentrations as low as 5 nM bombesin, FIG. 2). In addition, the “stimulation of the spontaneous acrosome reaction” value in the test with human sperm and in the test on monkey sperm was “stimulate” in each case.
In the case of `COC(=O)[C@H](CC(C)C)NC(=O)[C@H](Cc1c[nH]cn1)NC(=O)[C@@H](C)NC(=O)[C@@H](NC(=O)[C@H](C)NC(=O)[C@H](Cc1c[nH]c2ccccc12)NC(=O)[C@H](CCC(N)=O)NC(=O)[C@H](N)Cc1c(F)c(F)c(F)c(F)c1F)C(C)C` [BIM 26226, H-D-F5 -Phe-Gln-Trp-Ala-Val-D-Ala-His-Leu-OCH3] (H-[dPhe(F5)]QWAV[dA]HL-OMe), in the test on sperm [1], the “% Acrosome Reacted, Analog + GRP” value is given as 12.000 ± .707% and the “% Acrosome Reacted, Analog” value is listed as 9.000 ± 1.780%.
Take Neuromedin B: the “reaction of the new receptor to the peptide” value in the test on new GRP receptor is “reacted only weakly”.
